From ChEMBL document CHEMBL1275362, “Synthesis of new antifungal peptides selective against Cryptococcus neoformans” (2010)
≈ marks a conversion by molar mass, not a printed value. Starred links: 1 amine or outer side, 2 acyl side, 3 side chain; linkers in the order of their positions; H or OH if unused. Non-standard residues stand in square brackets, D forms with d. Residues, ends and D or L forms follow the SMILES beside them. X1 = O=C([C@H](CC1=NC=NC1)N[*:1])[*:2]

Columns and labels:
Assay type in all cases: functional
Cryptococcus neoformans [1] = test: Antifungal activity against Cryptococcus neoformans H99 after 72 hrs by broth microdilution method; details: H99, 72 h
Nakaseomyces glabratus = test: Antifungal activity against Candida glabrata after 48 hrs by broth microdilution method
Cryptococcus neoformans [2] = test: Antifungal activity against Cryptococcus neoformans ATCC 52817 after 72 hrs by broth microdilution method; details: ATCC 52817, 72 h
Pichia kudriavzevii = test: Antifungal activity against Candida krusei after 48 hrs by broth microdilution method
Candida albicans = test: Antifungal activity against Candida albicans after 48 hrs by broth microdilution method
Candida parapsilosis = test: Antifungal activity against Candida parapsilosis after 48 hrs by broth microdilution method; details: Lodderomyces parapsilosis
Candida tropicalis = test: Antifungal activity against Candida tropicalis after 48 hrs by broth microdilution method

Molecule	MIC (Cryptococcus neoformans [1])	MIC90 (Cryptococcus neoformans [1])	MIC (Nakaseomyces glabratus)	MIC90 (Nakaseomyces glabratus)	MIC (Cryptococcus neoformans [2])	MIC (Pichia kudriavzevii)	MIC90 (Pichia kudriavzevii)	MIC (Candida albicans)	MIC90 (Candida albicans)	MIC (Candida parapsilosis)	MIC90 (Candida parapsilosis)	MIC (Candida tropicalis)	MIC90 (Candida tropicalis)
H-HRRWWRF-OH	8 µg/mL	16 µg/mL	128 µg/mL	512 µg/mL	16 µg/mL	128 µg/mL	256 µg/mL	128 µg/mL	512 µg/mL	128 µg/mL	256 µg/mL	128 µg/mL	512 µg/mL
N=C(N)NCCC[C@@H]1NC(=O)[C@H](CCCNC(=N)N)NC(=O)[C@H](Cc2c[nH]c3ccccc23)NC(=O)[C@H](Cc2c[nH]c3ccccc23)NC(=O)[C@H](CCCNC(=N)N)NC(=O)[C@H](Cc2ccccc2)NC(=O)[C@H](Cc2c[nH]cn2)NC(=O)CNC(=O)[C@H](Cc2c[nH]cn2)NC1=O (cyclo(FRWWRRHGH))	2 µg/mL (≈ 1.52 µM)	4 µg/mL (≈ 3.03 µM)	64 µg/mL (≈ 48.5 µM)	256 µg/mL (≈ 194 µM)	4 µg/mL (≈ 3.03 µM)	32 µg/mL (≈ 24.3 µM)	64 µg/mL (≈ 48.5 µM)	32 µg/mL (≈ 24.3 µM)	128 µg/mL (≈ 97 µM)	32 µg/mL (≈ 24.3 µM)	128 µg/mL (≈ 97 µM)	32 µg/mL (≈ 24.3 µM)	128 µg/mL (≈ 97 µM)
H-RRWWRF-OH	16 µg/mL	64 µg/mL	128 µg/mL	512 µg/mL	16 µg/mL	128 µg/mL	512 µg/mL	128 µg/mL	512 µg/mL	64 µg/mL	128 µg/mL	128 µg/mL	512 µg/mL
C[C@@H]1[C@H](O)[C@@H](C)/C=C/C=C/C=C/C=C/C=C/C=C/C=C/[C@H](O[C@@H]2O[C@H](C)[C@@H](O)[C@H](N)[C@@H]2O)C[C@@H]2O[C@](O)(C[C@@H](O)C[C@@H](O)[C@H](O)CC[C@@H](O)C[C@@H](O)CC(=O)O[C@H]1C)C[C@H](O)[C@H]2C(=O)O [AMPHOTERICIN B]	0.125 µg/mL (≈ 0.135 µM)	0.25 µg/mL (≈ 0.271 µM)	0.03 µg/mL (≈ 0.0325 µM)	0.125 µg/mL (≈ 0.135 µM)		0.03 µg/mL (≈ 0.0325 µM)	0.06 µg/mL (≈ 0.0649 µM)	0.03 µg/mL (≈ 0.0325 µM)	0.125 µg/mL (≈ 0.135 µM)	0.06 µg/mL (≈ 0.0649 µM)	0.06 µg/mL (≈ 0.0649 µM)	0.03 µg/mL (≈ 0.0325 µM)	0.06 µg/mL (≈ 0.0649 µM)
N=C(N)NCCC[C@@H]1NC(=O)[C@H](CCCNC(=N)N)NC(=O)[C@H](Cc2ccccc2)NC(=O)[C@H](CCCNC(=N)N)NC(=O)[C@H](Cc2c[nH]c3ccccc23)NC(=O)[C@H](Cc2c[nH]c3ccccc23)NC1=O (cyclo(RRWWRF))	4 µg/mL (≈ 4.05 µM)	64 µg/mL (≈ 64.8 µM)	128 µg/mL (≈ 130 µM)	512 µg/mL (≈ 518 µM)	8 µg/mL (≈ 8.1 µM)	32 µg/mL (≈ 32.4 µM)	512 µg/mL (≈ 518 µM)	128 µg/mL (≈ 130 µM)	512 µg/mL (≈ 518 µM)	32 µg/mL (≈ 32.4 µM)	128 µg/mL (≈ 130 µM)	128 µg/mL (≈ 130 µM)	512 µg/mL (≈ 518 µM)
OC(Cn1cncn1)(Cn1cncn1)c1ccc(F)cc1F [FLUCONAZOLE]	2 µg/mL (≈ 6.53 µM)	4 µg/mL (≈ 13.1 µM)	4 µg/mL (≈ 13.1 µM)	64 µg/mL (≈ 209 µM)		16 µg/mL (≈ 52.2 µM)	64 µg/mL (≈ 209 µM)	0.125 µg/mL (≈ 0.408 µM)	0.25 µg/mL (≈ 0.816 µM)	1 µg/mL (≈ 3.27 µM)	2 µg/mL (≈ 6.53 µM)	0.5 µg/mL (≈ 1.63 µM)	2 µg/mL (≈ 6.53 µM)
N=C(N)NCCC[C@@H]1NC(=O)[C@H](CCCNC(=N)N)NC(=O)[C@H](Cc2c[nH]c3ccccc23)NC(=O)[C@H](Cc2c[nH]c3ccccc23)NC(=O)[C@H](CCCNC(=N)N)NC(=O)[C@H](Cc2ccccc2)NC(=O)[C@H](Cc2c[nH]cn2)NC1=O (cyclo(FRWWRRH))	4 µg/mL (≈ 3.55 µM)	8 µg/mL (≈ 7.11 µM)	64 µg/mL (≈ 56.9 µM)	256 µg/mL (≈ 227 µM)	8 µg/mL (≈ 7.11 µM)	32 µg/mL (≈ 28.4 µM)	64 µg/mL (≈ 56.9 µM)	64 µg/mL (≈ 56.9 µM)	256 µg/mL (≈ 227 µM)	64 µg/mL (≈ 56.9 µM)	128 µg/mL (≈ 114 µM)	64 µg/mL (≈ 56.9 µM)	256 µg/mL (≈ 227 µM)
N=C(N)NCCC[C@H](NC(=O)[C@H](Cc1c[nH]c2ccccc12)NC(=O)[C@H](Cc1c[nH]c2ccccc12)NC(=O)[C@H](CCCNC(=N)N)NC(=O)[C@H](CCCNC(=N)N)NC(=O)[C@H](CC1=NC=NC1)NC(=O)CNC(=O)[C@@H](N)Cc1c[nH]cn1)C(=O)N[C@@H](Cc1ccccc1)C(=O)O (H-HG[X1]RRWWRF-OH)	8 µg/mL (≈ 5.98 µM)	16 µg/mL (≈ 12 µM)	256 µg/mL (≈ 191 µM)	> 512 µg/mL	8 µg/mL (≈ 5.98 µM)	256 µg/mL (≈ 191 µM)	512 µg/mL (≈ 383 µM)	256 µg/mL (≈ 191 µM)	> 512 µg/mL	> 512 µg/mL	512 µg/mL (≈ 383 µM)	256 µg/mL (≈ 191 µM)	> 512 µg/mL
